molecular target: T1, vanilloid receptor 1 (VR1/TRPV1 receptor) (Homo sapiens, UniProt Q8NER1); assay: Functional testing on vanilloid receptor 1: FLIPR Ca2+ influx assay against capsaicin (Cap) in transfected CHO K1 cells (pharmacological method II); type: cell-based; parameters: key to (f) Ki (human being) [nM] Cap: agonist classification: AG = agonist; details: @ 5µM; human VR1 in CHO K1 cells; capsaicin; relative to maximum inhibition with 10 µM capsazepine; read-out: inhibition (as a percentage), printed in column (f) Ki (human being) [nM] Cap; for Ki: 100 nM capsaicin
T1 construct: expressed in transfected cells; host or cells: CHO K1 cells (ECACC), stably transfected
T1 sequence (Q8NER1 whole entry): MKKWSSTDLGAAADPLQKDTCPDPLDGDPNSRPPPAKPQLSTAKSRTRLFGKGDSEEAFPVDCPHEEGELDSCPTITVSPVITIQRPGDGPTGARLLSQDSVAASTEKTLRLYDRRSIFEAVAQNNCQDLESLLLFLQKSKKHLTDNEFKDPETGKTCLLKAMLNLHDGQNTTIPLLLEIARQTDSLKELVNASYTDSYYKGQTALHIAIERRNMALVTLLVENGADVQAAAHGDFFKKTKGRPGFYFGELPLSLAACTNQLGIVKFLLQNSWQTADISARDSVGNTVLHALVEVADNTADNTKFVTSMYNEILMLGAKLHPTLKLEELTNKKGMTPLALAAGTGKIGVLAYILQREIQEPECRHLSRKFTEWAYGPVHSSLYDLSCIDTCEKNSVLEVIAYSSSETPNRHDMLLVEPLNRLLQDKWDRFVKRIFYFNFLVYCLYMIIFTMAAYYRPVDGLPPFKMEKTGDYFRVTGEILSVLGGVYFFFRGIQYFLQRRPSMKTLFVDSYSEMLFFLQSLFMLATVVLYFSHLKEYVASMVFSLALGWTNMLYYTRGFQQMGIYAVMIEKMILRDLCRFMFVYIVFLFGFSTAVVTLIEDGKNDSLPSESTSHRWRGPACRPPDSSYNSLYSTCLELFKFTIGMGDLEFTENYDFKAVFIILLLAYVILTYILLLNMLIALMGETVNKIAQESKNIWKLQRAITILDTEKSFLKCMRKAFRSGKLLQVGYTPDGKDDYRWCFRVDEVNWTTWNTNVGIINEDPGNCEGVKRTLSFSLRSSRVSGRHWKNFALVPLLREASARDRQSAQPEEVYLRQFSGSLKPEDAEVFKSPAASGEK
Source text: […]

Going from `CC(C)(C)c1cc(CNC(=O)Nc2ccc(C(C)(CO)CO)cc2)n(-c2cccc(Cl)c2)n1` [A157, 1-[[5-tert-Butyl-2-(3-chlorophenyl)-2H-pyrazol-3-yl]-methyl]-3-[4-[2-hydroxy-1-(hydroxymethyl)-1-methyl-ethyl]-phenyl]-urea] to `CC(C)(C)c1cc(CNC(=O)Nc2ccc(C(O)(CO)CO)cc2)n(-c2cccc(Cl)c2)n1` [A159, 1-[[5-tert-Butyl-2-(3-chlorophenyl)-2H-pyrazol-3-yl]-methyl]-3-[4-[1,2-dihydroxy-1-(hydroxymethyl)-ethyl]-phenyl]-urea], the inhibition at 5 µM falls from 35% to 24%.

same assay, conditions: human VR1 in CHO K1 cells; AG printed instead of a Ki

With `CC(C(=O)NCc1cc(C(C)(C)C)nn1-c1ccc(F)c(Cl)c1)c1ccc(CO)c(F)c1` (stereo not drawn) [A41, N-[[5-tert-Butyl-2-(3-chloro-4-fluoro-phenyl)-2H-pyrazol-3-yl]-methyl]-2-[3-fluoro-4-(hydroxymethyl)-phenyl]-propionamide] the “(f) Ki (human being) [nM] Cap: agonist classification” value (“(f) Ki (human being) [nM] Cap” for short) was “AG”.
In the case of `CC(C(=O)NCc1cc(C(C)(C)C)nn1-c1cccc(Cl)c1)c1ccc(C(O)CO)cc1` (stereo not drawn) [A147, N-[[5-tert-Butyl-2-(3-chlorophenyl)-2H-pyrazol-3-yl]-methyl]-2-[4-(1,2-dihydroxy-ethyl)-phenyl]-propionamide], the “(f) Ki (human being) [nM] Cap” value is reported as “AG”.
For `COc1c(F)cc(C(C)C(=O)NCc2cc(C(C)(C)C)nn2-c2ccc(F)c(Cl)c2)cc1F` (stereo not drawn) [A5, N-[[5-tert-Butyl-2-(3-chloro-4-fluoro-phenyl)-2H-pyrazol-3-yl]-methyl]-2-(3,5-difluoro-4-methoxy-phenyl)-propionamide], the “(f) Ki (human being) [nM] Cap” value was “AG”.

same assay, conditions: read-out: (f) Ki (human being) [nM] Cap

`CC(C(=O)NCc1cc(C(F)(F)F)nn1-c1cccc(Cl)c1)c1ccc(COCCO)c(F)c1` (stereo not drawn) [A118, N-[[2-(3-Chlorophenyl)-5-(trifluoromethyl)-2H-pyrazol-3-yl]-methyl]-2-[3-fluoro-4-(2-hydroxy-ethoxy-methyl)-phenyl]-propionamide] and `COCCOCc1ccc(C(C)C(=O)NCc2cc(C(F)(F)F)nn2-c2cccc(Cl)c2)cc1F` (stereo not drawn) [A111, N-[[2-(3-Chlorophenyl)-5-(trifluoromethyl)-2H-pyrazol-3-yl]-methyl]-2-[3-fluoro-4-(2-methoxy-ethoxy-methyl)-phenyl]-propionamide] are within 1.5-fold of each other in Ki: 27 nM for the first, 38 nM for the second.

`CCOc1cc(C)cc(-n2nc(C(F)(F)F)cc2CNC(=O)Nc2ccc(CO)c(F)c2)c1` [A93, 1-[[2-(3-Ethoxy-5-methyl-phenyl)-5-(trifluoromethyl)-2H-pyrazol-3-yl]-methyl]-3-[3-fluoro-4-(hydroxymethyl)-phenyl]-urea] and `Cc1cc(F)cc(-n2nc(C(F)(F)F)cc2CNC(=O)Nc2ccc(CO)c(F)c2)c1` [A77, 1-[3-Fluoro-4-(hydroxymethyl)-phenyl]-3-[[2-(3-fluoro-5-methyl-phenyl)-5-(trifluoromethyl)-2H-pyrazol-3-yl]-methyl]-urea] are within 1.5-fold of each other in Ki: 18 nM for the first, 19 nM for the second.

First: CC(C)(C)c1cc(CNC(=O)Nc2ccc(C3(O)COC3)c(F)c2)n(-c2cccc(Cl)c2)n1 [A109, 1-[[5-tert-Butyl-2-(3-chlorophenyl)-2H-pyrazol-3-yl]-methyl]-3-[3-fluoro-4-(3-hydroxy-oxetan-3-yl)-phenyl]-urea]
Second: CC(C)(C)c1cc(CNC(=O)Nc2ccc(OCCO)c(F)c2)n(-c2cccc(Cl)c2)n1 [A19, 1-[[5-tert-Butyl-2-(3-chlorophenyl)-2H-pyrazol-3-yl]-methyl]-3-[3-fluoro-4-(2-hydroxy-ethoxy)-phenyl]-urea]
The Ki of the first is 3.3-fold higher: 43 nM for the first, 13 nM for the second.

`O=C(NCc1cc(C(F)(F)F)nn1-c1ccc(Cl)cc1)Nc1ccc(CO)c(F)c1` [A60, 1-[[2-(4-Chlorophenyl)-5-(trifluoromethyl)-2H-pyrazol-3-yl]-methyl]-3-[3-fluoro-4-(hydroxymethyl)-phenyl]-urea] and `O=C(NCc1cc(C(F)(F)F)nn1-c1ccc(F)cc1)Nc1ccc(CO)c(F)c1` [A63, 1-[3-Fluoro-4-(hydroxymethyl)-phenyl]-3-[[2-(4-fluorophenyl)-5-(trifluoromethyl)-2H-pyrazol-3-yl]-methyl]-urea] are within 1.5-fold of each other in Ki: 10 nM for the first, 9 nM for the second.

Going from `CC(C)(C)c1cc(CNC(=O)Nc2ccc(COCCO)c(F)c2)n(-c2cccc(Cl)c2)n1` [A129, 1-[[5-tert-Butyl-2-(3-chlorophenyl)-2H-pyrazol-3-yl]-methyl]-3-[3-fluoro-4-(2-hydroxy-ethoxy-methyl)-phenyl]-urea] to `COCCOCc1ccc(NC(=O)NCc2cc(C(F)(F)F)nn2-c2cccc(Cl)c2)cc1F` [A128, 1-[[2-(3-Chlorophenyl)-5-(trifluoromethyl)-2H-pyrazol-3-yl]-methyl]-3-[3-fluoro-4-(2-methoxy-ethoxy-methyl)-phenyl]-urea], the Ki rises from 43 nM to 67 nM (1.6-fold).

Compared with `Cc1cc(-n2nc(C(F)(F)F)cc2CNC(=O)Nc2ccc(CO)c(F)c2)ccc1C#N` [A81, 1-[[2-(4-Cyano-3-methyl-phenyl)-5-(trifluoromethyl)-2H-pyrazol-3-yl]-methyl]-3-[3-fluoro-4-(hydroxymethyl)-phenyl]-urea], `Cc1cc(-n2nc(C(F)(F)F)cc2CNC(=O)Nc2ccc(CO)c(F)c2)ccc1Cl` [A78, 1-[[2-(4-Chloro-3-methyl-phenyl)-5-(trifluoromethyl)-2H-pyrazol-3-yl]-methyl]-3-[3-fluoro-4-(hydroxymethyl)-phenyl]-urea] is 1.9-fold lower in Ki: 21 nM for the first, 11 nM for the second. The second binds more tightly here.

`O=C(NCc1cc(C(F)(F)F)nn1-c1cccc(Cl)c1)Nc1ccc(OCCO)c(F)c1` [A20, 1-[[2-(3-Chlorophenyl)-5-(trifluoromethyl)-2H-pyrazol-3-yl]-methyl]-3-[3-fluoro-4-(2-hydroxy-ethoxy)-phenyl]-urea] and `COc1ccc(NC(=O)NCc2cc(C(F)(F)F)nn2-c2cccc(Cl)c2)cc1OC` [A14, 1-[[2-(3-Chlorophenyl)-5-(trifluoromethyl)-2H-pyrazol-3-yl]-methyl]-3-(3,4-dimethoxyphenyl)-urea] are within 1.5-fold of each other in Ki: 37 nM for the first, 25 nM for the second.

Going from `CC(C(=O)NCc1cc(C(F)(F)F)nn1-c1ccc(F)c(Cl)c1)c1ccc(CO)c(F)c1` (stereo not drawn) [A42, N-[[2-(3-Chloro-4-fluoro-phenyl)-5-(trifluoromethyl)-2H-pyrazol-3-yl]-methyl]-2-[3-fluoro-4-(hydroxymethyl)-phenyl]-propionamide] to `COCCOCc1ccc(C(C)C(=O)NCc2cc(C(F)(F)F)nn2-c2ccc(F)c(Cl)c2)cc1F` (stereo not drawn) [A112, N-[[2-(3-Chloro-4-fluoro-phenyl)-5-(trifluoromethyl)-2H-pyrazol-3-yl]-methyl]-2-[3-fluoro-4-(2-methoxy-ethoxy-methyl)-phenyl]-propionamide], the Ki rises from 3 nM to 79 nM (26-fold).

First: CC(C(=O)NCc1cc(C(F)(F)F)nn1-c1ccc(F)c(F)c1)c1ccc(C2(O)CC2)c(F)c1 (stereo not drawn) [A104, N-[[2-(3,4-Difluoro-phenyl)-5-(trifluoromethyl)-2H-pyrazol-3-yl]-methyl]-2-[3-fluoro-4-(1-hydroxy-cyclopropyl)-phenyl]-propionamide]
Second: CC(C(=O)NCc1cc(C(C)(C)C)nn1-c1cccc(F)c1)c1ccc(COCCO)c(F)c1 (stereo not drawn) [A116, N-[[5-tert-Butyl-2-(3-fluorophenyl)-2H-pyrazol-3-yl]-methyl]-2-[3-fluoro-4-(2-hydroxy-ethoxy-methyl)-phenyl]-propionamide]
The Ki of the first is 1.5-fold lower: 12 nM for the first, 18 nM for the second.

For `COc1c(Cl)cccc1-n1nc(C(F)(F)F)cc1CNC(=O)Nc1ccc(CO)c(F)c1` [A90, 1-[[2-(3-Chloro-2-methoxy-phenyl)-5-(trifluoromethyl)-2H-pyrazol-3-yl]-methyl]-3-[3-fluoro-4-(hydroxymethyl)-phenyl]-urea], the Ki was 27 nM.
